From patent publication US9867879B2 (Vanderbilt University, priority 2015, dated 2018) come the findings set out here.

One experiment relates to HssRS. The experiment is described as follows: microbe, parasite or virus in culture. It is filed as cell-based, S. aureus. To be noted: for HssRS activation in single point screen: 50 μM, fraction of activation relative to 1, cut-off 0.05, in words; for EC50: Staphylococcus aureus, 6 h; for Efficacy: percent activation of HssRS compared to 1 at 50 μM, error one standard deviation. The procedure:
Previously reported strains were used.^11 Cultures grown overnight in 5 ml TSB with 10 μg mL^−1 chloramphenicol for 15-18 h were subcultured 1:100 into 0.5 mL TSB with 10 μg mL^−1 chloramphenicol containing compound and incubated at 37° C., 180 rpm for 6 h. Cells were washed and lysed as previously described. 200 μL of a 200 μM catechol solution in 100 mM potassium phosphate (pH 8.0) was added to 20 μL of lysate and the oxidation of catechol was followed by monitoring absorbance at 375 nm for 10 min. Samples were normalized to protein concentration as determined by BCA assay (Pierce).
The above XylE procedure was followed using different concentrations of compound. The data were then entered into Graphpad Prism 6 and fit to a curve to determine EC50 values.
HssRS activation. The library was screened for activation of the heme stress response as an indicator for activation of heme biosynthesis in S. aureus. We began by screening at the single point concentration of 50 μM using a previously described reporter assay (FIG. 4).^11 In this assay, Newman harboring a plasmid with the hrt promoter fused to xylE, a gene encoding a catechol oxidase, is treated with compound for six hours, the bacteria lysed, and the oxidation of catechol by XylE quantified by spectrophotometry. An increase in absorbance due to the oxidation of catechol indicates elevated levels of xylE transcription and hrt promoter activity. Results are expressed as the fraction of activation of HssRS by the compound compared to 1. […] With reference to FIG. 8, activation of HssRS by 3a and 3b at 50 μM. Activity is presented as the fraction of activation by the indicated derivative relative to 1 at 50 μM.

In experiment [1] the test system is wild type S. aureus strain Newman. Briefly: Growth inhibition IC50, Newman aerobic. It is filed as cell-based. To be noted: Staphylococcus aureus, NEWMAN, 95% confidence interval, >60 μM considered nontoxic. How it is done:
(§1) Cultures of wild type S. aureus strain Newman and ΔmenB^14 were grown in aeration tubes aerobically at 37° C. with shaking for 15-18 h. Anaerobic cultures were prepared by growing bacteria at 37° C. without shaking in an anaerobic chamber for 15-18 h. Bacteria from each condition were subcultured 1:100 into TSB containing various concentrations of compound in a 96 well plate. Aerobic wild type and ΔmenB plates are incubated aerobically at 37° C. with shaking while anaerobic plates were grown in an anaerobic chamber (Coy) at 37° C. without shaking. The absorbance at 600 nm (OD600) was determined after 9 h of growth and the fraction of growth at each compound concentration is determined by dividing the OD600 by the vehicle control (DMSO) value. IC50s were calculated using Graphpad Prism 6 and errors are reported as 95% confidence intervals.
(§2) Wild type S. aureus strain Newman was grown in an anaerobic chamber in appropriate media to ensure exclusion of terminal electron acceptors sufficient to force the bacteria to ferment. […] The arbitrary cut off point for toxicity of 60 μM was chosen as many of the compounds were not entirely soluble above this concentration.

For experiment [2] the test system is unchanged. The experiment is described as follows: Growth inhibition IC50, Newman anaerobic (fermenting). The following applies: for toxicity to fermenting / anaerobic S. aureus (in words): anaerobic Newman and ΔmenB, from IC50 data; for IC50: Staphylococcus aureus, NEWMAN, 9 h of growth, anaerobic chamber, 95% confidence interval, >60 μM considered nontoxic. It is filed as cell-based. How it is done: as §1, §2

The subject of a further experiment is ΔmenB. Briefly: Growth inhibition IC50, ΔmenB. It is filed as cell-based, S. aureus. The following applies: Staphylococcus aureus, 9 h, read-out: IC50 ΔmenB. The procedure: as §1, with “intervals. […]” for “intervals.”
Where [3] appears, read: 9 h of growth, aerobic, read-out: IC50 Newman aerobic.
Setting [4] is: 9 h, read-out: IC50 Newman aerobic, 9 h of growth, aerobic.

The structures appear in SMILES notation. Entries after “also recorded” stand apart in the source; their conditions may differ. Where two headings read alike, the source gives them in different places.

Consider `Oc1ccccc1-c1cc(-c2ccco2)[nH]n1` [Compound 1a, 2-(5-(furan-2-yl)-1H-pyrazol-3-yl)phenol], for which, in the experiment on HssRS, the “HssRS activation in single point screen” value is given as “modest loss of activity compared to 1”, the EC50 came out at 30.4 µM and the Efficacy was 28.2 ± 5.4%. In addition, in the experiment with HssRS (read-out: pEC50 (converted)), the EC50 was 32.4 µM. The IC50 in experiment [1] (setting [3]) was over 60 µM. Further, the “toxicity to fermenting / anaerobic S. aureus (in words)” value in experiment [2] is reported as “relatively nontoxic to fermenting S. aureus”. In addition, the IC50 in the experiment on ΔmenB was found to be 35.6 µM.

As for `COc1ccc(-c2cc(-c3ccco3)[nH]n2)c(O)c1` [Compound 1b, 2-(5-(furan-2-yl)-1H-pyrazol-3-yl)-5-methoxyphenol], the “HssRS activation in single point screen” value in the experiment with HssRS is given as “modest loss of activity compared to 1”. Besides, the figures for the EC50 with HssRS and in the experiment on HssRS (read-out: pEC50 (converted)) were 50.2 µM and 50.1 µM, respectively. In the experiment on HssRS, this compound showed an Efficacy of 26.2 ± 6.7%. Also, the IC50 (in experiment [1] (setting [4]); in experiment [2]; with ΔmenB) was over 60 µM each time. Besides, the “toxicity to fermenting / anaerobic S. aureus (in words)” value in experiment [2] is “relatively nontoxic to fermenting S. aureus”.

As to `COc1c(-c2cc(-c3ccco3)[nH]n2)ccc2ccccc12` [Compound 1c, 5-(furan-2-yl)-3-(1-methoxynaphthalen-2-yl)-1H-pyrazole], the “HssRS activation in single point screen” value in the experiment with HssRS is “complete loss of activity”. The IC50 (in experiment [1] (setting [4]); in experiment [2]; in the experiment on ΔmenB) was over 60 µM throughout. Moreover, the “toxicity to fermenting / anaerobic S. aureus (in words)” value in experiment [2] is reported as “eliminates toxicity”.

For the compound `COc1ccccc1-c1cc(-c2ccco2)[nH]n1` [Compound 1d, 5-(furan-2-yl)-3-(2-methoxyphenyl)-1H-pyrazole], the “HssRS activation in single point screen” value in the experiment on HssRS was “loss of HssRS activation compared to 1 and 1a”. The IC50 (in experiment [1] (setting [4]); in experiment [2]; in the experiment on ΔmenB) was over 60 µM each time.

As to `Oc1cccc(-c2cc(-c3ccco3)[nH]n2)c1` [Compound 1e, 3-(5-(furan-2-yl)-1H-pyrazol-3-yl)phenol], in the experiment with HssRS, the “HssRS activation in single point screen” value is “loss of HssRS activation compared to 1 and 1a”. For the same compound, the IC50 (in experiment [1] (setting [4]); in experiment [2]; in the experiment with ΔmenB) was over 60 µM each time.

For the compound `Oc1ccc(-c2cc(-c3ccco3)[nH]n2)cc1` [Compound 1f], in the experiment on HssRS, the “HssRS activation in single point screen” value is “loss of HssRS activation compared to 1 and 1a”. Moreover, the IC50 (in experiment [1] (setting [4]); in experiment [2]; with ΔmenB) was over 60 µM each time.

Take `c1ccc(-c2cc(-c3ccco3)[nH]n2)cc1` [Compound 1g, 5-(furan-2-yl)-3-phenyl-1H-pyrazole]: the “HssRS activation in single point screen” value in the experiment with HssRS is “loss of HssRS activation compared to 1 and 1a”. In addition, the IC50 (in experiment [1] (setting [4]); in experiment [2]; in the experiment on ΔmenB) was over 60 µM in each case.

Consider `CS(=O)(=O)Nc1ccccc1-c1cc(-c2ccco2)[nH]n1` [Compound 1h, N-(2-(5-(furan-2-yl)-1H-pyrazol-3-yl)phenyl)methanesulfonamide], for which the “HssRS activation in single point screen” value in the experiment with HssRS is “loss of HssRS activation compared to 1 and 1a”. For the same compound, the IC50 (in experiment [1] (setting [4]); in experiment [2]; in the experiment with ΔmenB) was over 60 µM throughout. Also, in experiment [2], the “toxicity to fermenting / anaerobic S. aureus (in words)” value is “nontoxic under fermentative conditions”.

On to `COc1ccc(C(=O)Nc2ccccc2-c2cc(-c3ccco3)[nH]n2)cc1` [Compound 1j, N-(2-(5-(furan-2-yl)-1H-pyrazol-3-yl)phenyl)-4-methoxybenzamide], for which the IC50 was over 60 µM in experiment [1] (setting [4]), 11.6 µM in experiment [2] and 6.63 µM in the experiment on ΔmenB.

For the compound `O=C(Nc1ccccc1-c1cc(-c2ccco2)[nH]n1)c1cccc2ccccc12` [Compound 1k, N-(2-(5-(furan-2-yl)-1H-pyrazol-3-yl)phenyl)-1-naphthamide], the figures for the IC50 (in experiment [1] (setting [4]); in experiment [2]; in the experiment with ΔmenB) were over 60 µM, 13.4 µM and 5.89 µM, respectively.

In the case of `O=C(Nc1ccccc1-c1cc(-c2ccco2)[nH]n1)c1ccco1` [Compound 1l, N-(2-(5-furan-2-yl)-1H-pyrazol-3-yl)phenylfuran-2-carboxamide], the IC50 is over 60 µM in experiment [1] (setting [4]), 28.8 µM in experiment [2] and 21.4 µM in the experiment with ΔmenB.

Turning to `Oc1ccccc1-c1cc(-c2ccoc2)[nH]n1` [Compound 2b], the IC50 (in experiment [1] (setting [4]); in experiment [2]; in the experiment with ΔmenB) was over 60 µM each time.

As for `Oc1ccccc1-c1cc(-c2ccccc2)[nH]n1` [Compound 2c, 2-(5-phenyl-1H-pyrazol-3-yl)phenol], in the experiment on HssRS, the “HssRS activation in single point screen” value was “restore activity comparable to 1”, the EC50 is 14.6 µM and the Efficacy was 87.8 ± 23.7%. Also, in the experiment on HssRS (read-out: pEC50 (converted)), the EC50 was 21.9 µM. The “HssRS activation (in words)” value in the experiment with HssRS (summary statements, concentration not fixed) is reported as “maintains HssRS activity”. The IC50 in experiment [1] (setting [3]) is over 60 µM. Further, in experiment [2], half-maximal inhibition (IC50) required 24 µM and the “toxicity to fermenting / anaerobic S. aureus (in words)” value is recorded as “anaerobic toxicity similar to 1; also recorded: restores toxicity comparable to 1”. Further, the IC50 in the experiment on ΔmenB is 25.2 µM.

`Oc1ccccc1-c1cc(-c2ccccn2)[nH]n1` [Compound 2g]: the IC50 (in experiment [1] (setting [4]); in experiment [2]; in the experiment on ΔmenB) was over 60 µM in each case.

As for `Oc1ccccc1-c1cc(-c2cccnc2)[nH]n1` [Compound 2h, 2-(5-(pyridin-3-yl)-1H-pyrazol-3-yl)phenol], the IC50 (in experiment [1] (setting [4]); in experiment [2]; in the experiment with ΔmenB) was over 60 µM in each case.

In the case of `Cc1cc(-c2ccccc2O)n[nH]1` [Compound 2k, 2-(5-methyl-1H-pyrazol-3-yl)phenol], the IC50 (in experiment [1] (setting [4]); in experiment [2]; in the experiment on ΔmenB) was over 60 µM in each case. Further, the “toxicity to fermenting / anaerobic S. aureus (in words)” value in experiment [2] is “nontoxic under all conditions”.

Regarding `CCc1cc(-c2ccccc2O)n[nH]1` [Compound 2l, 2-(5-ethyl-1H-pyrazol-3-yl)phenol], the IC50 (in experiment [1] (setting [4]); in experiment [2]; in the experiment with ΔmenB) was over 60 µM throughout. In experiment [2], the “toxicity to fermenting / anaerobic S. aureus (in words)” value is reported as “nontoxic under all conditions”.

Consider `CC(C)(C)c1cc(-c2ccccc2O)n[nH]1` [Compound 2m, 2-(5-(tert-butyl)-1H-pyrazol-3-yl)phenol], for which the IC50 (in experiment [1] (setting [4]); in experiment [2]; in the experiment on ΔmenB) was over 60 µM each time. Further, in experiment [2], the “toxicity to fermenting / anaerobic S. aureus (in words)” value is given as “nontoxic under all conditions”.

As to `Oc1ccccc1-c1cc(C2CCCC2)[nH]n1` [Compound 2n, 2-(5-cyclopentyl-1H-pyrazol-3-yl)phenol], the IC50 in experiment [1] (setting [4]) was over 60 µM; in experiment [2], 25.3 µM; with ΔmenB, 29.7 µM. The “toxicity to fermenting / anaerobic S. aureus (in words)” value in experiment [2] is “comparably toxic to 1”.

As for `COc1ccccc1-c1cc(-c2ccccc2F)[nH]n1` [Compound 3b, 5-(2-fluorophenyl)-3-(2-methoxyphenyl)-1H-pyrazole], the IC50 (in experiment [1] (setting [4]); in experiment [2]; in the experiment with ΔmenB) was over 60 µM in each case. Moreover, the “toxicity to fermenting / anaerobic S. aureus (in words)” value in experiment [2] is “eliminates toxicity”.
